{"source": "paper PMC7383852", "about": "(Annals of Neurology, 2020)", "key": {"[1]": {"test_system": "participants with mild to moderate dementia due to Alzheimer's disease", "test": "MMSE", "assay_type": "in vivo, human", "conditions": "nilotinib-treated group, 12 months"}, "[2]": {"test_system": "participants with mild to moderate dementia due to Alzheimer's disease", "test": "CDR-SOB", "assay_type": "in vivo, human", "conditions": "nilotinib-treated group"}, "[3]": {"test_system": "participants with mild to moderate dementia due to Alzheimer's disease", "test": "ADCS-ADL", "assay_type": "in vivo, human", "conditions": "nilotinib group, 12 months"}, "Abelson": {"test_system": "Abelson", "conditions": "read-out: Abelson inhibition IC50; cited from earlier work"}, "Electrocardiogram QTc": {"test": "Electrocardiogram QTc", "conditions": "nilotinib group versus placebo group"}, "patients with CML": {"test_system": "patients with CML", "conditions": "studies of 5,661 patients; ref nilotinib prescription information; cited from earlier work"}, "DDR1": {"test_system": "DDR1", "conditions": "read-out: DDR1 inhibition IC50; 21 (b2); cited from earlier work"}, "CSF DOPAC and HVA": {"test_system": "CSF DOPAC and HVA", "test": "CSF dopamine metabolites DOPAC and HVA by UHPLC-MS/MS", "assay_type": "in vivo, human"}, "[4]": {"test": "Nilotinib in plasma and CSF by mass spectrometry", "conditions": "human, in vivo"}, "[5]": {"test_system": "participants with mild to moderate dementia due to Alzheimer's disease", "test": "Adverse events and serious adverse events, phase 2 trial"}}}
{"smiles": "Cc1cn(-c2cc(NC(=O)c3ccc(C)c(Nc4nccc(-c5cccnc5)n4)c3)cc(C(F)(F)F)c2)cn1", "note": "[nilotinib, Nilotinib]", "values": [{"measurement": "MMSE annual decline", "setting": "[1]", "result": "−2.50", "unit": "patients"}, {"measurement": "CDR-SOB decline", "setting": "[2]; 6 months", "result": 1.5, "unit": "points"}, {"measurement": "CDR-SOB decline", "setting": "[2]; 12 months", "result": 2.5, "unit": "points"}, {"measurement": "ADCS-ADL decline", "setting": "[3]", "result": "−4.5", "unit": "points"}, {"measurement": "IC50", "setting": "Abelson", "result": "> 20", "unit": "nM"}, {"measurement": "QTc prolongation", "setting": "Electrocardiogram QTc", "result": "No QTc prolongation was observed"}, {"measurement": "Sudden death, share of patients with CML", "setting": "patients with CML", "result": 0.3, "unit": "%"}, {"measurement": "IC50", "setting": "DDR1", "result": "[…]"}, {"measurement": "CSF HVA change in the nilotinib group", "setting": "CSF DOPAC and HVA; 6 months", "result": -71.9, "unit": "nM"}, {"measurement": "CSF HVA change, nilotinib compared to placebo", "setting": "CSF DOPAC and HVA; 6 months", "result": -61.5, "unit": "nM"}, {"measurement": "CSF DOPAC change in the nilotinib group", "setting": "CSF DOPAC and HVA; 12 months", "result": -0.3, "unit": "nM"}, {"measurement": "CSF HVA change in the nilotinib group", "setting": "CSF DOPAC and HVA; 12 months", "result": -47.4, "unit": "nM"}, {"measurement": "CSF HVA change, nilotinib compared to placebo", "setting": "CSF DOPAC and HVA; 12 months", "result": -37.1, "unit": "nM"}, {"measurement": "AUC", "setting": "[4]; 150 mg, CSF, 150 mg daily", "result": 7.59, "unit": "ng·h/mL"}, {"measurement": "AUC", "setting": "[4]; 150 mg, Plasma, 150 mg daily", "result": 2510, "unit": "ng·h/mL"}, {"measurement": "Cmax", "setting": "[4]; 150 mg, CSF, 150 mg daily", "result": 3.46, "unit": "nM"}, {"measurement": "Cmax", "setting": "[4]; 150 mg, Plasma, 150 mg daily", "result": 1100, "unit": "nM"}, {"measurement": "Tmax", "setting": "[4]; 150 mg, CSF, 150 mg daily", "result": 3, "unit": "h"}, {"measurement": "Tmax", "setting": "[4]; 150 mg, Plasma, 150 mg daily", "result": 4, "unit": "h"}, {"measurement": "AUC", "setting": "[4]; 300 mg, CSF, 300 mg daily", "result": 11.3, "unit": "ng·h/mL"}, {"measurement": "AUC", "setting": "[4]; 300 mg, Plasma, 300 mg daily", "result": 3380, "unit": "ng·h/mL"}, {"measurement": "Cmax", "setting": "[4]; 300 mg, CSF, 300 mg daily", "result": 4.7, "unit": "nM"}, {"measurement": "Cmax", "setting": "[4]; 300 mg, Plasma, 300 mg daily", "result": 1410, "unit": "nM"}, {"measurement": "Mood swings", "setting": "[5]; between 6 and 12 months, 300 mg", "result": 70.6, "unit": "%"}, {"measurement": "Mood swings or behavioral changes", "setting": "[5]; between baseline and 6 months, 150 mg", "result": "No mood swings or behavioral changes were reported"}, {"measurement": "No. of SAEs/no. of patients (%)", "setting": "[5]; n = 17", "result": 0}, {"measurement": "SAE Bronchitis", "setting": "[5]; n = 17", "result": "0 No. of events (%)"}, {"measurement": "SAE Hypotension", "setting": "[5]; n = 17", "result": "0 No. of events (%)"}, {"measurement": "SAE Psychosis", "setting": "[5]; n = 17", "result": "0 No. of events (%)"}, {"measurement": "SAE Rhabdomyolysis", "setting": "[5]; n = 17", "result": "0 No. of events (%)"}, {"measurement": "SAE Vertigo", "setting": "[5]; n = 17", "result": "0 No. of events (%)"}, {"measurement": "Agitation", "setting": "[5]; nilotinib group", "result": 52.9, "unit": "%"}, {"measurement": "Diarrhea", "setting": "[5]; nilotinib group", "result": 41.2, "unit": "%"}, {"measurement": "Irritability", "setting": "[5]; nilotinib group", "result": 35.2, "unit": "%"}, {"measurement": "Pain", "setting": "[5]; nilotinib group", "result": 41.2, "unit": "%"}, {"measurement": "Total number of SAEs", "setting": "[5]; nilotinib group", "result": 0, "unit": "%"}, {"measurement": "Number of AEs", "setting": "[5]; nilotinib group, 12 months", "result": 122}, {"measurement": "Hypokalemia, hypomagnesemia, long QT syndrome", "setting": "[5]; this study", "result": "no hypokalemia, hypomagnesemia, or long QT syndrome were observed"}]}
